Measurements reported in publication PMC7726757 (ACS Omega, 2020).

Experiments:
Assay in all cases: Isothermal titration calorimetry
Pm-NanK = target: T1, Pm-NanK (Pasteurella multocida, UniProt Q9CKB3, M259T); format: binding, P. multocida
T1 sequence (Q9CKB3 1-297 M259T): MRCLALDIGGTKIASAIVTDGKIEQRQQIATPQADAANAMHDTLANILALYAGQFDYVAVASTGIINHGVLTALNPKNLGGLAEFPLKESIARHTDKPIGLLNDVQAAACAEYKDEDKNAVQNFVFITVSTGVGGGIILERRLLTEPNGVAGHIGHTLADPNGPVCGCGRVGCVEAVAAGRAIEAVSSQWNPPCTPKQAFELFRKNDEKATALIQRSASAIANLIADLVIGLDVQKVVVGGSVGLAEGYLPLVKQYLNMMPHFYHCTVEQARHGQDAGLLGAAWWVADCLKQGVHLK

Vc-NanK = target: T2, Vc-NanK (Vibrio cholerae serotype O1, UniProt Q9KR61); format: binding, V. cholera
T2 sequence (Q9KR61 1-287): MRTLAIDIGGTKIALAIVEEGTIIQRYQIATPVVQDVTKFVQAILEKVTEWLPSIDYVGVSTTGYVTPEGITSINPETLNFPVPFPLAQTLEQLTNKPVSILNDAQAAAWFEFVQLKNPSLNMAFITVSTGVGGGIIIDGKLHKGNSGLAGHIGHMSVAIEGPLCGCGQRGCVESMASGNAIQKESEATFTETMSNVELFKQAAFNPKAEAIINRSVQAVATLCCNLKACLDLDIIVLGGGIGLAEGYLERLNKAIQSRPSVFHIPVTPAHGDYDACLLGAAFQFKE

Hi-NanK = target: T3, Hi-NanK (Haemophilus influenzae, UniProt Q4QP43); format: binding, H. influenzae
T3 sequence (Q4QP43 1-300): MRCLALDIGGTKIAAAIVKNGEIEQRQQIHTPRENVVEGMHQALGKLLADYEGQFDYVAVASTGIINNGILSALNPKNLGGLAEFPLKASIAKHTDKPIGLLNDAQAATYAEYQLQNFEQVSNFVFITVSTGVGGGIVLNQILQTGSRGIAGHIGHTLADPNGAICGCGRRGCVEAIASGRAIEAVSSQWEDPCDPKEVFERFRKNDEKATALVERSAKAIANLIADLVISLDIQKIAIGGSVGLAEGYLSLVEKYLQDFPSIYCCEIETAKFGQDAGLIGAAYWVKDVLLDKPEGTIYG

Fn-NanK = target: T4, Fn-NanK (Fusobacterium nucleatum, UniProt Q8RDN7); format: binding, F. nucleatum; conditions: Fn-NanK wild type
T4 sequence (Q8RDN7 1-291): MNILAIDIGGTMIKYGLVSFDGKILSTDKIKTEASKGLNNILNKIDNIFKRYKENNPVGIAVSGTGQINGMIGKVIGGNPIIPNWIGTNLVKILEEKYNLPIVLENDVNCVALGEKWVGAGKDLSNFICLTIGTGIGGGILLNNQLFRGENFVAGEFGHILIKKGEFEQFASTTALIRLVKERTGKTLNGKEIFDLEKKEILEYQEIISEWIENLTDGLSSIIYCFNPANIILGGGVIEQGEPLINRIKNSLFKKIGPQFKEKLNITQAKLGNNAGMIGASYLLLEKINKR

[1] = Hi-NanK wild type, ligand alone
[2] = Hi-NanK, in the presence of ManNAc

SMILES: Nc1ncnc2c1ncn2[C@@H]1O[C@H](COP(=O)(O)OP(=O)(O)NP(=O)(O)O)[C@@H](O)[C@H]1O [AMPPNP, adenylyl-imidodiphosphate]
- Kd (Pm-NanK; in the presence of ManNAc): 112 ± 14.5 µM
- TΔS (Pm-NanK; in the presence of ManNAc): 1.1 kcal/mol
- ΔH (Pm-NanK; in the presence of ManNAc): –4.3 ± 0.35 Kcal/mol
- Kd (Pm-NanK; ligand alone): no measurable binding
- Kd (Vc-NanK; in the presence of ManNAc): 44 ± 9.2 µM
- TΔS (Vc-NanK; in the presence of ManNAc): 3.814 kcal/mol
- ΔH (Vc-NanK; in the presence of ManNAc): –2.1 ± 0.482 Kcal/mol
- Kd (Vc-NanK; ligand alone): no measurable binding
- Kd (Hi-NanK; [1]): 53 ± 6.4 µM
- TΔS (Hi-NanK; [1]): –1.85 Kcal/mol
- ΔH (Hi-NanK; [1]): –7.7 ± 2.44 Kcal/mol
- Kd (Hi-NanK; [2]): 72 ± 12 µM
- TΔS (Hi-NanK; [2]): 1.94 kcal/mol
- ΔH (Hi-NanK; [2]): –3.7 ± 0.68 Kcal/mol
- Kd (Fn-NanK; in the presence of ManNAc): 35 ± 1.12 µM
- TΔS (Fn-NanK; in the presence of ManNAc): –2.87 Kcal/mol
- ΔH (Fn-NanK; in the presence of ManNAc): –8.94 ± 0.18 Kcal/mol
- Kd (Fn-NanK; ligand alone): 61 ± 7.48 µM
- TΔS (Fn-NanK; ligand alone): 2.13 kcal/mol
